This note sets out measurements from the pKa sets of Baltruschat and Czodrowski (2020).

Where a SMILES comes first, the peptide text is derived from it. [ ]: non-standard residue; d: D form. pGlu = O=C1CC[C@@H](C(=O)O)N1

The conditions of the first data set: acidic group.
In turn, `O[n+]1c2ccccc2nc2ccccc21` registered a pKa of 1.12.
In the case of `O=C1CCON1`, the pKa turned out to be 6.7.
The same measure, in the same setting: the same measure for `NC(=S)Nc1cccc(Cl)c1`: 12; for `CC(C)NC(=S)S`: 3.1; for `CN(C)c1ncc2[nH]cnc2n1`: 10.2.
Compound `Cc1cc(O)cc(C)c1[N+](=O)[O-]` registered a pKa of 8.25.
For `N#CC(C#N)=NNc1ccc([N+](=O)[O-])cc1`, the pKa came out at 5.5.
Consider `O=c1cc(-c2cccc(O)c2)oc2ccccc12`, for which the pKa is 9.75.
In the case of `Cc1ccc(/C=N/O)cc1`, the pKa was found to be 10.9.
Turning to `CC[NH+]1CCC[C@@H]1CNC(=O)c1c(O)c(Cl)cc(Cl)c1OC`, the pKa is 5.75.
`OC(c1ccncc1)(c1ccncc1)c1ccccn1` registered a pKa of 12.4.
`O=C1[N-]C(=S)NC(=O)C1C1C=CCCC1` (configuration not stated) displayed a pKa of 11.3.
`NS(=O)(=O)c1ccc(C(=O)O)cc1` gave a pKa of 3.53.
`O=C(O)c1ccc(Cl)s1` showed a pKa of 3.41.
In turn, `CC#CC(=O)O` returned a pKa of 2.63.
The compound `Cc1cc(C(=O)O)ccc1O` came in with a pKa of 4.68.
Same read-out and setting: under `CC(=O)C(C)C(=O)c1ccccc1` (configuration not stated) stands 11.1; under `C[NH+](C)Cc1cc(F)cc(C[NH+](C)C)c1O`, 5.77.
Turning to `CCC1(C2=CCCCC2)C(=O)[N-]C(=S)NC1=O`, the pKa was 11.8.
The same measure, in the same setting: under `CCOC(=O)c1n[nH]c2c(c1=O)c(=O)n(C)c(=O)n2C` stands 7.32.
Compound `CCCCCCc1c(-c2ccccc2)nn(-c2ccccc2)c1O` showed a pKa of 7.4.
The compound `C[n+]1cccc2cc(O)ccc21` gave a pKa of 7.15.
Consider `N#Cc1cccc(S(N)(=O)=O)c1`, for which the pKa was 8.84.
On the same count and under the same terms, under `Cc1cc([N+](=O)[O-])ccc1NN=C(C#N)C#N` stands 5.5; under `Oc1cccc2c1CCC2`, 10.2.
On to `CCCc1ncnc2c(O)cccc12`, for which the pKa was 8.82.
Still for that read-out and setting: the same measure for `C[C@H](NC(=O)[C@@H]1CCC(=O)N1)C(=O)O` ([pGlu]-Ala-OH): 3.6.
`N#Cc1ccc(NS(=O)(=O)c2ccccc2)cc1` showed a pKa of 6.78.
`O=C1CSCC(=O)C1` gave a pKa of 4.34.
Consider `c1ccc2c(c1)ccc1nc[nH]c12`, for which the pKa was 12.5.
Same read-out and setting: under `CC(=O)c1cccc(=O)c(O)c1` stands 6.16; under `O/N=C\C=C\c1ccccc1`, 10.9; under `CC/C=C/CC(=O)N[C@H]1C(=O)N2[C@H]1SC(C)(C)[C@H]2C(=O)O`, 2.84.
Compound `Cc1cnc(C(=O)O)s1` showed a pKa of 3.03.
Compound `C[C@@H]1CC[C@H](C)[C@H]1C(=O)O` registered a pKa of 4.69.
Turning to `O=C([O-])C[N+](=O)[O-]`, the pKa is 8.9.
Take `O=S(=O)(Cc1ccccc1)c1ncn[nH]1`: the pKa is 6.23.
In the case of `Oc1ccc2cccc(Br)c2c1`, the pKa was 8.94.
On the same count and under the same terms, the same measure for `OCCNC(=S)S`: 2.82; for `O=C(O)Cc1ccc(-c2ccccc2)cc1`: 4.46.
The compound `Nc1cccc2c(O)cccc12` showed a pKa of 10.3.
With `O=c1[nH]c(=O)n(-c2ccccc2)[nH]1`, the pKa was 4.9.

Still in this data set, the particulars now being: basic group.
Regarding `Nc1ccc2cc3cc(Cl)ccc3nc2c1`, the pKa amounted to 6.95.
`Cc1nc([O-])n[nH]1`: the pKa turned out to be 9.43.
`Nc1ccc(N)cc1` showed a pKa of 6.16.
The same measure, in the same setting: the same measure for `[NH3+]CCc1ccccn1`: 3.93.
`CN(C)c1ncc2[nH]cnc2n1`: the pKa worked out at 4.02.
On the same count and under the same terms, under `CC1ONCc2ccccc21` (configuration not stated) stands 3.6; under `Cc1cc(-c2cccc[nH+]2)nn1C`, -1.6.
On the same count and under the same terms, the same measure for `COC(=O)[C@@H]1CSCN1`: 3.92; for `CN(C)CC[NH+](C)C`: 6.04.
Turning to `C1CN2C(=N1)N1CCN=C1N1CCN=C21`, the pKa turned out to be 5.8.
As for `CCCCNc1ncnc2c1cnn2C`, the pKa is 4.22.
On to `CCCCCCCCCCN(CC(C)O)CC(O)CC` (configuration not stated), for which the pKa amounted to 6.7.
The compound `COC(=O)C[C@@H]1[C@@H](C(=O)[O-])NC[C@H]1C(C)O` (some centres not stated) gave a pKa of 9.41.
Compound `Nc1nc2c(o1)CCCC2` yielded a pKa of 5.75.
`Nc1cccc(Cl)c1` came in with a pKa of 3.59.
The compound `Nc1ccc(C[NH3+])cc1` came in with a pKa of 4.16.
In the case of `COc1cc(S(C)=O)ccc1-c1cn2ccnc(OC)c2n1` (configuration not stated), the pKa was found to be 2.46.
`Cc1nc2cc(C(=O)[O-])ccc2[nH]1` came in with a pKa of 6.
With `CCOc1ccc2nc(/C=C/c3ccccc3)cc(N)c2c1`, the pKa was 9.5.
The compound `Nc1nnc(-c2ccccc2)s1` returned a pKa of 2.9.
The compound `CN1C[C@H](C(=O)[O-])C[C@@]2(O)c3cccc4[nH]cc(c34)C[C@H]12` showed a pKa of 9.17.
In turn, `C[NH2+]CCN(C)CC[NH2+]C` came in with a pKa of 3.13.
`CCN(CC)CCN(CC)CC` gave a pKa of 9.55.
`CSc1ccc2ccccc2n1` showed a pKa of 3.71.
As to `CNC(C(=O)[O-])C(C)C` (configuration not stated), the pKa was 9.9.
In turn, `Cn1cccn1` displayed a pKa of 2.48.
The compound `CC(C)N(CCc1ccccc1)CCc1ccccc1` had a pKa of 10.
`NCCC(=O)Oc1ccc([N+](=O)[O-])cc1` displayed a pKa of 9.17.
On to `Cc1cc(C)c2nc(C)cc(N)c2c1`, for which the pKa is 10.4.
Still for that read-out and setting: under `Nc1ccncc1` stands 9.16; under `NC(=S=O)c1ccccc1`, 0.8.
`CCCCNN` returned a pKa of 7.82.
Same read-out and setting: the same measure for `c1nc(Cc2c[nH]c(Cc3nc(Cc4cnc[nH]4)c[nH]3)n2)c[nH]1`: 7.49; for `NCC(=O)N[C@@H](Cc1c[nH]cn1)C(=O)[O-]` (H-Gly-His-OH): 8.14; for `Cc1cc([N+](=O)[O-])ccc1NN=C(C#N)C#N`: -0.74.
On the same count and under the same terms, under `Cn1c2ccccc2c(=N)c2ccccc21` stands 11; under `CCC(C)N` (configuration not stated), 10.6.
For the compound `c1ccc(-c2ccc3nc(CN4CCOCC4)cn3n2)cc1`, the pKa came out at 6.25.
For `C1CN(CCN2CCOCC2)CCO1`, the pKa was 6.65.
`c1ccc2c(c1)ccc1nc[nH]c12` gave a pKa of 5.28.
Consider `O=C(CCCCN1CCOCC1)c1ccccc1`, for which the pKa is 7.5.
As for `C[C@H](N)C(=O)[O-]`, the pKa came to 9.72.
As for `c1coc(CNCCNCc2ccco2)c1`, the pKa worked out at 8.61.
Compound `CC(=O)N1CCNc2ncnc(C)c21` yielded a pKa of 5.26.
For the compound `c1c(CN2CCNCCNCC2)n[nH]c1CN1CCNCCNCC1`, the pKa is 11.2.
Compound `CN(C)c1ccncn1` yielded a pKa of 6.35.
Same read-out and setting: the same measure for `CCN1CCCC1CNS(=O)(=O)c1ccc(OC)c(OC)c1OC` (configuration not stated): 8.7; for `Cc1cccc(C(C)c2c[nH]cn2)c1C` (configuration not stated): 7.04.
In turn, `CCN(CC)CCC(=O)Nc1c(C)cccc1C` showed a pKa of 8.96.
Compound `OC1C=CC=CC=C1` showed a pKa of -7.
On the same count and under the same terms, the same measure for `Cc1cc(C)c(C)c(N)c1C`: 4.3; for `Nc1ccnc([S-])n1`: 10.6; for `CCOC(=O)Cc1ccccn1`: 4.25.
`C=CCSS/C(CCO)=C(/C)N(C=O)Cc1cnc(C)nc1N`: the pKa was 5.65.
Compound `CN1C[C@@H](CO)C[C@H]2c3cccc4[nH]cc(c34)C[C@@H]21` yielded a pKa of 8.3.
With `CN(C)CCCN(C)CCCN(C)C`, the pKa worked out at 10.
As to `CN1CCCC1c1cncc2[nH]c3ccccc3c12` (configuration not stated), the pKa amounted to 8.02.
As to `NCC=C(Cl)Cl`, the pKa amounted to 9.3.
In turn, `Nc1cccc2c(O)cccc12` had a pKa of 4.15.
Regarding `O=c1[nH]c(=O)n(-c2ccccc2)[nH]1`, the pKa is -4.1.
